Patent publication US20260297060A1, “COMPOUNDS FOR THE DEGRADATION OF MUTANT BRAF” (C4 THERAPEUTICS, INC., priority 2023, published 2026)
Where two headings read alike, the source gives them in different places.

Target: T1, BRAF V600E (Homo sapiens, UniProt P15056+Q96SW2, V600E)
T1 construct: knock-in of the HiBiT tag to the endogenous BRAF V600E locus; host or cells: A375.10 (A375 clonal line, CRISPR HiBiT knock-in at the endogenous BRAF V600E locus)
Experiment: BRAF V600E HiBiT Degradation Assay
Type: cell-based
In short: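 Endogenous HiBiT knock-in on BRAF V600E in A375 cells (clone A375.10); 11-point half-log series, top 10 μM, 2, 6 or 24 h at 37° C. Lytic HiBiT luminescence, background-subtracted, normalized to DMSO; 4-parameter fit gives DC50, Emax (residual protein) and IP (inflection point).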

[1] = A375.10 cells, BRAF V600E, 2 hours, inflection point, read-out: HiBiT-Degradation A375.10 BRAF 2 hours IP
[2] = A375.10 cells, BRAF V600E, 2 hours, read-out: HiBiT-Degradation A375.10 BRAF 2 hours DC50
[3] = A375.10 cells, BRAF V600E, 6 hours, inflection point, read-out: HiBiT-Degradation A375.10 BRAF 6 hours IP
[4] = A375.10 cells, BRAF V600E, 6 hours, read-out: HiBiT-Degradation A375.10 BRAF 6 hours DC50
[5] = A375.10 cells, BRAF V600E, 6 hours, residual protein remaining, read-out: HiBiT-Degradation A375.10 BRAF 6 hours Emax
[6] = A375.10 cells, HiBiT, BRAF V600E, 24 hours, read-out: HiBiT-Degradation A375.10 BRAF 24 hours DC50
[7] = A375.10 cells, HiBiT, BRAF V600E, 24 hours, read-out: HiBiT-Degradation A375.10 BRAF 24 hours Emax
[8] = A375.10 cells, HiBiT, BRAF V600E, 24 hours, read-out: HiBiT-Degradation A375.10 BRAF 24 hours IP
[9] = read-out: HiBiT-Degradation A375.10 BRAF 2 hours Emax, A375.10 cells, BRAF V600E, 2 hours, residual protein remaining
[10] = A375.10 cells, BRAF V600E, 2 hours, residual protein remaining, read-out: HiBiT-Degradation A375.10 BRAF 2 hours Emax

T1 sequence (P15056 whole entry V600E): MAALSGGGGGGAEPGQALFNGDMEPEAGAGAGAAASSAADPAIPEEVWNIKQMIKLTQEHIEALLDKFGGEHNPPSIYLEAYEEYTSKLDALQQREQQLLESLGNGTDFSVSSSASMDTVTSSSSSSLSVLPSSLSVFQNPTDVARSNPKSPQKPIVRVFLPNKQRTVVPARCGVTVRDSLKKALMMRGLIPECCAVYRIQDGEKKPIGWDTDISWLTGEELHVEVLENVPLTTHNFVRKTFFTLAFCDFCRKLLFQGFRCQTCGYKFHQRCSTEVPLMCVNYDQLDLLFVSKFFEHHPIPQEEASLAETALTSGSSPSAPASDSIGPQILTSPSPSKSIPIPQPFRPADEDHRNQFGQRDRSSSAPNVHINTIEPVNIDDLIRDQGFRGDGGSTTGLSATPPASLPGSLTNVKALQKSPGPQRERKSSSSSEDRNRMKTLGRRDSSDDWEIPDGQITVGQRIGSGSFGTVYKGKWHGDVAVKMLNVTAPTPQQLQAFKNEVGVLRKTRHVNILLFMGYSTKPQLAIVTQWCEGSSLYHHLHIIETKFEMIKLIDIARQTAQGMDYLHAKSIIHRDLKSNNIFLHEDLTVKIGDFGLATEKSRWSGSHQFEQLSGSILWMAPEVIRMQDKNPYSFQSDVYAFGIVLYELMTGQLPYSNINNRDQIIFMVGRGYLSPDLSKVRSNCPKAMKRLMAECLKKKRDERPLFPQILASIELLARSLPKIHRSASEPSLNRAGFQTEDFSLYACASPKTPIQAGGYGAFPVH
T1 sequence (Q96SW2 whole entry): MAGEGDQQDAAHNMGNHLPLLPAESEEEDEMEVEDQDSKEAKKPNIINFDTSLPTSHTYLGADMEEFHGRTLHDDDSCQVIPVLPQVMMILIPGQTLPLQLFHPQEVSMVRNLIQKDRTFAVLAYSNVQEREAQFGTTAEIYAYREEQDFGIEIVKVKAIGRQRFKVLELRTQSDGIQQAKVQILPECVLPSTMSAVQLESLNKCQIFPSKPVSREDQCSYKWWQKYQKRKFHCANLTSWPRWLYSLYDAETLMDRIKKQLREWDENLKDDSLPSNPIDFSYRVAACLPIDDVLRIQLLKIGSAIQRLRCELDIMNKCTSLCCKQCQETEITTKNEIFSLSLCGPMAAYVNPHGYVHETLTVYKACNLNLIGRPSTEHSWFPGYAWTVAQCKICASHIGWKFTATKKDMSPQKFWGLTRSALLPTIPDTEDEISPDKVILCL
T1 sequence (Q16531 whole entry partner): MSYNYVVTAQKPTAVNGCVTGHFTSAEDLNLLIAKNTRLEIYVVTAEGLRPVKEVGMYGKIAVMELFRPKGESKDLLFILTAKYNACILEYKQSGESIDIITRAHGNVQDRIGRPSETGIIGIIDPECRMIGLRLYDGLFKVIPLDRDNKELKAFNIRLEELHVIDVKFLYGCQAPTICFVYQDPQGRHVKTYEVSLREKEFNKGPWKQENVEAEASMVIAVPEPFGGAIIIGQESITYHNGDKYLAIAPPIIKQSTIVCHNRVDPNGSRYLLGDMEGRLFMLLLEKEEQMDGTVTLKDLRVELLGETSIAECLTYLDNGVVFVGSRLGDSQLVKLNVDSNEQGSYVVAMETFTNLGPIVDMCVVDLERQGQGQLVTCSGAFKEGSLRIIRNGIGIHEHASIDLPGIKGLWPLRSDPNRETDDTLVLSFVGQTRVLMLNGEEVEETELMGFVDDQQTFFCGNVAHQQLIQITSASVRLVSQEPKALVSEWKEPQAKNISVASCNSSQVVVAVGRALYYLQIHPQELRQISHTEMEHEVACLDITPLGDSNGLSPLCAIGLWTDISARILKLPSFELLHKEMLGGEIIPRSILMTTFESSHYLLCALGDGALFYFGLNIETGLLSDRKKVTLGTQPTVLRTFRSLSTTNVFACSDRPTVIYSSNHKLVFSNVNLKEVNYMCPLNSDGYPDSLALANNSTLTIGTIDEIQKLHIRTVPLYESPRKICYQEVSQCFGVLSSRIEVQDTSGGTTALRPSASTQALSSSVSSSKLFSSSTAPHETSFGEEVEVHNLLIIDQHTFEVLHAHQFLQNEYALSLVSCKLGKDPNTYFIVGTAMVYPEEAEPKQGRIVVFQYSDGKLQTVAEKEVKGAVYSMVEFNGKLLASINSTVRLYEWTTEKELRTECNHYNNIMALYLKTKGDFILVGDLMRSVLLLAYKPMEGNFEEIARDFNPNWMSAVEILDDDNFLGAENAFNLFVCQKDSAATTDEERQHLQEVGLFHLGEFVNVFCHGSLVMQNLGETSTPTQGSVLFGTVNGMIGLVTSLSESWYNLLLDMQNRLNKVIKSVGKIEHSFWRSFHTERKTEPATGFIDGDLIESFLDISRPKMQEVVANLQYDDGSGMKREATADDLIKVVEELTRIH

Compound: Cn1nc(N2CCC(=O)NC2=O)c2cc(F)c(C3CCC(N4CCC5(CC4)CC(n4cnc6ccc(Oc7c(F)ccc(NS(=O)(=O)C8CCCC8)c7C#N)cc6c4=O)C5)CC3)cc21 (single isomer, unassigned) [Compound 93, N-[2-cyano-3-[3-[7-[4-[3-(2,4-dioxohexahydropyrimidin-1-yl)-5-fluoro-1-methyl-indazol-6-yl]cyclohexyl]-7-azaspiro[3.5]nonan-2-yl]-4-oxo-quinazolin-6-yl]oxy-4-fluoro-phenyl]cyclopentanesulfonamide]
- DC50 [1]: < 1000 nM
- DC50 [2]: < 1000 nM
- DC50 [3]: < 1000 nM
- DC50 [4]: < 1000 nM
- Emax [5]: < 50%
- DC50 [6]: < 1000 nM
- Emax [7]: < 50%
- DC50 [8]: < 1000 nM
- Emax [9]: < 50%

Compound: CN(CCO)S(=O)(=O)Nc1ccc(F)c(Oc2ccc3ncn(C4CC5(CCN(C6CCC(c7cc8c(cc7F)c(N7CCC(=O)NC7=O)nn8C)CC6)CC5)C4)c(=O)c3c2)c1C#N (single isomer, unassigned) [Compound 81, 6-[2-cyano-6-fluoro-3-[[2-hydroxyethyl(methyl)sulfamoyl]amino]phenoxy]-3-[7-[4-[3-(2,4-dioxohexahydropyrimidin-1-yl)-5-fluoro-1-methyl-indazol-6-yl]cyclohexyl]-7-azaspiro[3.5]nonan-2-yl]-4-oxo-quinazoline]
- DC50 [1]: < 1000 nM
- DC50 [2]: < 1000 nM
- Emax [10]: 50 to 90%
- DC50 [3]: < 1000 nM
- DC50 [4]: < 1000 nM
- Emax [5]: < 50%
- DC50 [6]: < 1000 nM
- Emax [7]: < 50%
- DC50 [8]: < 1000 nM

Compound: CCN(C)S(=O)(=O)Nc1ccc(F)c(Oc2ccc3ncn([C@H]4COC5(CCC(N6CCC(c7cc8c(cc7F)c(N7CCC(=O)NC7=O)nn8C)C(F)(F)C6)CC5)C4)c(=O)c3c2)c1C#N (single isomer, unassigned) [Compound 38]
- DC50 [1]: < 1000 nM
- DC50 [2]: < 1000 nM
- DC50 [3]: < 1000 nM
- DC50 [4]: < 1000 nM
- Emax [5]: < 50%
- DC50 [6]: < 1000 nM
- Emax [7]: < 50%
- DC50 [8]: < 1000 nM
- Emax [9]: < 50%

Compound: CCN(C)S(=O)(=O)Nc1ccc(F)c(Oc2ccc3ncn([C@H]4COC5(CCN(C6CC(c7ccc(NC8CCC(=O)NC8=O)cc7F)C6)CC5)C4)c(=O)c3c2)c1C#N (single isomer, unassigned) [Compound 62]
- DC50 [1]: < 1000 nM
- DC50 [2]: < 1000 nM
- Emax [10]: < 50%
- DC50 [3]: < 1000 nM
- DC50 [4]: < 1000 nM
- Emax [5]: < 50%
- DC50 [6]: < 1000 nM
- Emax [7]: < 50%
- DC50 [8]: < 1000 nM
